In data set [1] the test system is M. incognita. As to the kind of experiment: Juvenile (J2) mortality, laboratory test in sterile water. It counts as in vivo. As to conditions: all concentrations (0.025%, 0.05%, 0.1%), in less than 24 h. From the text: (§1) The aim of the protocol was to evaluate the nematicidal efficacy of the formulation and of the active ingredients, cinnamic aldehyde and terpene alcohol, separately. For this trial M. incognita and M. javanica nematodes were used.
(§2) • 1. Untreated control specimen: Eggs or juvenile nematodes in sterile water. • 2. Eggs or juveniles with 0.025% of the formulation in sterile water. • 3. Eggs or juveniles with 0.05% of the formulation in sterile water. • 4. Eggs or juveniles with 0.1% of the formulation in sterile water. • 5. Eggs or juveniles with 0.025% of terpene alcohol in sterile water plus innocuous solvent. • 6. Eggs or juveniles with 0.05% of terpene alcohol in sterile water plus innocuous solvent. • 7. Eggs or juveniles with 0.1% of terpene alcohol in sterile water plus innocuous solvent. • 8. Eggs or juveniles with 0.025% of cinnamic aldehyde in sterile water plus innocuous solvent. • 9. Eggs or juveniles with 0.05% of cinnamic aldehyde in sterile water plus innocuous solvent. • 10. Eggs or juveniles with 0.1% of cinnamic aldehyde in sterile water plus innocuous solvent. Results:
(§3) The treatments with juveniles hatched at 0 h, 24 h, 48 h and 72 h. The number of hatched eggs was determined approximately every 72 h for 3-4 weeks. […]

Data set [2] concerns M. incognita. As to the kind of experiment: Egg hatching, laboratory test in sterile water. In kind it is in vivo. As to conditions: M. incognita eggs; 0.025%, 0.05%, 0.1%; counts about every 72 h for 3-4 weeks.
Source text: as §1, §2, §3

On to `O=C/C=C/c1ccccc1` [cinnamic aldehyde, (2E)-3-phenylprop-2-enal], for which the “mortality of J2” value with M. incognita [1] turned out to be 100%. Also, the egg hatching result in the data set on M. incognita [2] is “inhibited the hatching of juveniles”.

(Values after US12369578B2, “Use of a nematicide composition” (DESARROLLO AGRICOLA Y MINERO, S.A., priority 2019, dated 2025).)
